{
  "source": "patent US12716903B2",
  "about": "“Microfluidic chip-based, universal coagulation assay” (Perosphere Technologies Inc., priority 2014, dated 2026)",
  "test_system": "blood",
  "experiment": "Blood clotting time on microfluidic closed device chip, by IR light transmission and impedance",
  "design": "species or system patient",
  "details": "PER977 added to blood sample containing edoxaban, both at 300 ng/mL; IR and impedance curves; room temperature",
  "experimental": "For detection of clotting through measurement of impedances, a sample is loaded into the chip, the chip is inserted into its reader, and the pogo pins connecting to the internal impedance electrodes connected via Kelvin clip leads to a QuadTech 1920 LCR meter. The magnitude and the phase of the complex impedance of the blood sample were recorded at 15 second intervals. […] The peaks or plateaus indicated a measure for the clotting time.\nFor optical clot detection, IR LED and photodiode are inserted into their reader parts as described above. A blood sample is pipetted into the chip and the chip placed into the reader. The sample is continuously illuminated with IR light at 1,300 nm. At time intervals of typically 100 ms, the voltage drop across a 1 MOhm resistor caused by the photocurrent of the photodiode was recorded. Voltages typically measured several volts. Clotting of the sample caused the transmitted light and the photocurrent to vary over time. Characteristic peaks of the transmitted light curve indicated a measure for the clotting time.\nBlood was harvested from a patient using commercially available lancing devices. 10 μL of blood were obtained and pipetted into an Eppendorf tube. […]\nEdoxaban is a commercially available anticoagulant. […] The chip was inserted into its reader, and both IR light and impedance measurements were immediately recorded at room temperature (approximately 27° C.). […]",
  "data": [
    {"smiles": "N=C(N)NCCC[C@H](N)C(=O)NCCCN1CCN(CCCNC(=O)[C@@H](N)CCCNC(=N)N)CC1", "note": "[PER977, ciraparantag]", "values": [
      {"measurement": "characteristic peak indicative of the sample clotting time", "result": 2, "unit": "min"},
      {"measurement": "occurrence of a local minimum around 12 minutes", "result": "suppresses the occurrence of a local minimum"}
    ]}
  ]
}
